According to PubChem BioAssay AID1259407 (Chemical Carcinogenesis Research Information System (CCRIS), 2018):
The source made the active and inactive calls. No rule for the calls is given here.

System: CCRIS mutagenicity, Ames/micronucleus/aberration tests
Assay: CCRIS mutagenicity studies

With Nc1ccccc1 the mutagenic call (Test System: AMES SALMONELLA TYPHIMURIUM, Strain/Indicator: TA1535, Metabolic Activation: RAT, LIVER, S-9, Method: STANDARD PLATE) was “inactive; negative”, the mutagenic call (Test System: AMES SALMONELLA TYPHIMURIUM, Strain/Indicator: TA1537, Metabolic Activation: HAMSTER, LIVER, S-9, AROCLOR 1254, Method: STANDARD PLATE) was “inactive; negative” and the mutagenic call (Test System: AMES SALMONELLA TYPHIMURIUM, Strain/Indicator: TA1537, Metabolic Activation: HAMSTER, LIVER, S-9, Method: STANDARD PLATE) was “inactive; negative”. For the same compound, the mutagenic call (Test System: AMES SALMONELLA TYPHIMURIUM, Strain/Indicator: TA1537, Metabolic Activation: MOUSE, LIVER, S-9, AROCLOR 1254, Method: STANDARD PLATE) was “inactive; negative”, the mutagenic call (Test System: AMES SALMONELLA TYPHIMURIUM, Strain/Indicator: TA1537, Metabolic Activation: MOUSE, LIVER, S-9, Method: STANDARD PLATE) was “inactive; negative” and the mutagenic call (Test System: AMES SALMONELLA TYPHIMURIUM, Strain/Indicator: TA1537, Metabolic Activation: NONE, Method: STANDARD PLATE) was “inactive; negative”. The mutagenic call (Test System: AMES SALMONELLA TYPHIMURIUM, Strain/Indicator: TA1537, Metabolic Activation: RAT, LIVER, S-9, AROCLOR 1254, Method: STANDARD PLATE) was “inactive; negative”, the mutagenic call (Test System: AMES SALMONELLA TYPHIMURIUM, Strain/Indicator: TA1537, Metabolic Activation: RAT, LIVER, S-9, PYRAZOLE, Method: PREINCUBATION) was “inactive; negative” and the mutagenic call (Test System: AMES SALMONELLA TYPHIMURIUM, Strain/Indicator: TA1537, Metabolic Activation: RAT, LIVER, S-9, Method: STANDARD PLATE) was “inactive; negative”. For the same compound, the mutagenic call (Test System: AMES SALMONELLA TYPHIMURIUM, Strain/Indicator: TA1538, Metabolic Activation: HAMSTER, LIVER, S-9, AROCLOR 1254, Method: STANDARD PLATE) was “inactive; negative”, the mutagenic call (Test System: AMES SALMONELLA TYPHIMURIUM, Strain/Indicator: TA1538, Metabolic Activation: HAMSTER, LIVER, S-9, Method: STANDARD PLATE) was “inactive; negative” and the mutagenic call (Test System: AMES SALMONELLA TYPHIMURIUM, Strain/Indicator: TA1538, Metabolic Activation: HAMSTER, SPLEEN, S-9, AROCLOR 1254, Method: STANDARD PLATE) was “inactive; negative”. For the same compound, the mutagenic call (Test System: AMES SALMONELLA TYPHIMURIUM, Strain/Indicator: TA1538, Metabolic Activation: MOUSE, LIVER, S-9, AROCLOR 1254, Method: STANDARD PLATE) was “inactive; negative”, the mutagenic call (Test System: AMES SALMONELLA TYPHIMURIUM, Strain/Indicator: TA1538, Metabolic Activation: MOUSE, LIVER, S-9, Method: STANDARD PLATE) was “inactive; negative” and the mutagenic call (Test System: AMES SALMONELLA TYPHIMURIUM, Strain/Indicator: TA1538, Metabolic Activation: NONE, Method: STANDARD PLATE) was “inactive; negative”. The mutagenic call (Test System: AMES SALMONELLA TYPHIMURIUM, Strain/Indicator: TA1538, Metabolic Activation: RAT, LIVER, S-9, AROCLOR 1254, Method: PREINCUBATION) was “inactive; negative”, the mutagenic call (Test System: AMES SALMONELLA TYPHIMURIUM, Strain/Indicator: TA1538, Metabolic Activation: RAT, LIVER, S-9, AROCLOR 1254, Method: STANDARD PLATE) was “inactive; negative” and the mutagenic call (Test System: AMES SALMONELLA TYPHIMURIUM, Strain/Indicator: TA1538, Metabolic Activation: RAT, LIVER, S-9, Method: STANDARD PLATE) was “inactive; negative”. The mutagenic call (Test System: AMES SALMONELLA TYPHIMURIUM, Strain/Indicator: TA1538, Metabolic Activation: RAT, SPLEEN, S-9, AROCLOR 1254, Method: STANDARD PLATE) was “inactive; negative”, the mutagenic call (Test System: CHINESE HAMSTER V-79, Strain/Indicator: V-79/6-THIOGUANINE, Metabolic Activation: NONE, Method: SUSPENSION/PLATE) was “inactive; negative” and the mutagenic call (Test System: CHINESE HAMSTER V-79, Strain/Indicator: V-79/6-THIOGUANINE, Metabolic Activation: RAT, LIVER, HEPATOCYTES, Method: SUSPENSION/PLATE) was “inactive; negative”. For the same compound, the mutagenic call (Test System: CHINESE HAMSTER V-79, Strain/Indicator: V-79/6-THIOGUANINE, Metabolic Activation: RAT, LIVER, S-9, PHENOBARBITAL AND BETA-NAPHTHOFLAVONE, Method: SUSPENSION/PLATE) was “active; positive”, the mutagenic call (Test System: CHINESE HAMSTER V-79, Strain/Indicator: V-79/8-AZAGUANINE, Metabolic Activation: NONE, Method: SUSPENSION/PLATE) was “active; positive” and the mutagenic call (Test System: CHINESE HAMSTER V-79, Strain/Indicator: V-79/8-AZAGUANINE, Metabolic Activation: S-9, Method: SUSPENSION/PLATE) was “active; positive”. For the same compound, the mutagenic call (Test System: CHINESE HAMSTER V-79, Strain/Indicator: V-79/OUABAIN, Metabolic Activation: NONE, Method: SUSPENSION/PLATE) was “inactive; negative”, the mutagenic call (Test System: CHINESE HAMSTER V-79, Strain/Indicator: V-79/OUABAIN, Metabolic Activation: S-9, Method: SUSPENSION/PLATE) was “inactive; negative” and the mutagenic call (Test System: E. COLI, Strain/Indicator: WP2 UVRA, Metabolic Activation: HAMSTER, LIVER, S-9, AROCLOR 1254, Method: PREINCUBATION) was “inactive; negative”. For the same compound, the mutagenic call (Test System: E. COLI, Strain/Indicator: WP2 UVRA, Metabolic Activation: HAMSTER, LIVER, S-9, AROCLOR 1254, Method: STANDARD PLATE) was “inactive; negative”, the mutagenic call (Test System: E. COLI, Strain/Indicator: WP2 UVRA, Metabolic Activation: HAMSTER, LIVER, S-9, Method: PREINCUBATION) was “inactive; negative” and the mutagenic call (Test System: E. COLI, Strain/Indicator: WP2 UVRA, Metabolic Activation: HAMSTER, LIVER, S-9, Method: STANDARD PLATE) was “inactive; negative”. The mutagenic call (Test System: E. COLI, Strain/Indicator: WP2 UVRA, Metabolic Activation: MOUSE, LIVER, S-9, AROCLOR 1254, Method: PREINCUBATION) was “inactive; negative”, the mutagenic call (Test System: E. COLI, Strain/Indicator: WP2 UVRA, Metabolic Activation: MOUSE, LIVER, S-9, AROCLOR 1254, Method: STANDARD PLATE) was “inactive; negative” and the mutagenic call (Test System: E. COLI, Strain/Indicator: WP2 UVRA, Metabolic Activation: MOUSE, LIVER, S-9, Method: PREINCUBATION) was “inactive; negative”. For the same compound, the mutagenic call (Test System: E. COLI, Strain/Indicator: WP2 UVRA, Metabolic Activation: MOUSE, LIVER, S-9, Method: STANDARD PLATE) was “inactive; negative”, the mutagenic call (Test System: E. COLI, Strain/Indicator: WP2 UVRA, Metabolic Activation: NONE, Method: FLUCTUATION TEST) was “inactive; negative” and the mutagenic call (Test System: E. COLI, Strain/Indicator: WP2 UVRA, Metabolic Activation: NONE, Method: PREINCUBATION) was “inactive; negative”. The mutagenic call (Test System: E. COLI, Strain/Indicator: WP2 UVRA, Metabolic Activation: NONE, Method: STANDARD PLATE) was “inactive; negative”, the mutagenic call (Test System: E. COLI, Strain/Indicator: WP2 UVRA, Metabolic Activation: RAT, LIVER, S-9, AROCLOR 1254, Method: PREINCUBATION) was “inactive; negative” and the mutagenic call (Test System: E. COLI, Strain/Indicator: WP2 UVRA, Metabolic Activation: RAT, LIVER, S-9, AROCLOR 1254, Method: STANDARD PLATE) was “inactive; negative”. The mutagenic call (Test System: E. COLI, Strain/Indicator: WP2 UVRA, Metabolic Activation: RAT, LIVER, S-9, Method: PREINCUBATION) was “inactive; negative”, the mutagenic call (Test System: E. COLI, Strain/Indicator: WP2 UVRA, Metabolic Activation: RAT, LIVER, S-9, Method: STANDARD PLATE) was “inactive; negative” and the mutagenic call (Test System: MOUSE LYMPHOMA, Strain/Indicator: L5178Y (TK+/TK-), Metabolic Activation: NONE, Method: SUSPENSION/PLATE) was “active; positive”. The mutagenic call (Test System: MOUSE LYMPHOMA, Strain/Indicator: L5178Y (TK+/TK-), Metabolic Activation: RAT, LIVER, S-9, AROCLOR 1254, Method: SUSPENSION/PLATE) was “active; positive”, the mutagenic call (Test System: UDS RAT HEPATOCYTES, Strain/Indicator: BROMODEOXYURIDINE INCORP, Metabolic Activation: NONE, Method: FLOW CYTOMETRIC ANALYSIS) was “inactive; negative” and the mutagenic call (Test System: UDS RAT HEPATOCYTES, Strain/Indicator: THY INCORP, Metabolic Activation: NONE, Method: AUTORADIOGRAPHY) was “inactive; negative”. The mutagenic call (Test System: UDS RODENT HEPATOCYTES, Strain/Indicator: THY INCORP (NON-S-PHASE), Metabolic Activation: NONE, Method: AUTORADIOGRAPHY) was “inactive; negative”.
